{
  "source": "patent US20230132982A1",
  "about": "“USE OF PYRIDO[1,2-A]PYRIMIDINONE COMPOUND IN TREATING LYMPHOMA” (priority 2020, published 2023)",
  "assay_type_in_all_cases": "in vivo, human",
  "key": {"[1]": {"system": "relapsed/refractory diffuse large B-cell lymphoma (DLBCL)", "experiment": "Clinical trial in relapsed/refractory diffuse large B-cell lymphoma (Example 5)", "conditions": "20 mg orally once daily, 21-day cycle", "experimental": "(§1) Method of administration: orally administered once daily, 20 mg each time, with 21 consecutive days of administration as one cycle. Drug: tablet of the compound of formula I, 5 mg or 20 mg. […] The efficacy was evaluated according to the revised evaluation criteria of the Lugano conference, 2014 edition. Primary evaluation indexes of efficacy: objective response rate (ORR), i.e., (CR+PR cases)/total cases, including cases of complete response (CR) and partial response (PR). Secondary evaluation indexes of efficacy: progression-free survival (PFS), overall survival (OS), disease control rate (DCR) and duration of response (DOR)."}, "[2]": {"system": "relapsed or refractory FL", "experiment": "Clinical trial in relapsed or refractory follicular lymphoma (Example 4)", "experimental": "as §1, with “28” for “21”"}, "[3]": {"system": "Chronic lymphocytic leukemia/small lymphocytic lymphoma", "experiment": "Clinical trial in small lymphocytic lymphoma or chronic lymphocytic leukemia (Example 6)", "conditions": "20 mg orally once daily, 28-day cycle", "experimental": "as §1, with “with 28” for “with 21”, “evaluated with reference” for “evaluated according”, “to IWCLL2008” for “to the revised”, “criteria and the evaluation criteria revised by” for “criteria of”"}, "[4]": {"system": "relapsed or refractory lymphoma", "experiment": "Clinical trial of tablets of the compound of formula I in relapsed or refractory lymphoma (Example 2)", "design": "key to Best efficacy: “Small SD” means that at the time of efficacy evaluation, a lesion shrinks in size compared with a baseline level, but does not meet the criteria for PR", "experimental": "Drug: tablet of the compound of formula I, 1 mg or 5 mg. 2.2 Enrollment Criteria • 1) Unambiguously diagnosed as relapsed or refractory lymphoma by pathology and/or cytology; • 2) Has at least one measurable target lesion other than brain lesions confirmed by imaging in screening phase (evaluated according to the evaluation criteria revised by the Lugano conference, 2014 edition); • 3) Aged 18-75 years; • 4) ECOG (PS) score ≤1; • 5) Expected survival time ≥3 months; • 6) Main organ functions in the screening phase meet the following criteria: Criteria for blood routine examination (no growth factor used or no blood transfusion conducted within 7 days): • Absolute value of neutrophil count (ANC)≥1.5×10^9/L; • Platelet (PLT)≥75×10^9/L; hemoglobin (Hb)≥90 g/L; Criteria for blood biochemical examination: • Alanine transaminase (ALT) and aspartate transferase (AST)≤1.5×ULN (for patients with tumor liver metastasis, ≤3×ULN); • Glycosylated hemoglobin (HbA1c)≤8.5%; • Lipase≤1.5×ULN; • Serum total bilirubin≤1.5×ULN; • Serum creatinine (Cr)≤1.5×ULN; • 7) Doppler ultrasound evaluation: left ventricular ejection fraction (LVEF)≥lower limit of normal (50%); • 8) Female subjects should agree to take contraceptive measures (such as intrauterine devices [IUD], contraceptives or condoms) during the study and for 6 months after the study; serum or urine pregnancy test results should be negative within 7 days before enrollment, and the subjects must not be breastfeeding; male subjects should agree to take contraceptive measures during the study and for 6 months after the study; and • 9) Voluntary participation, written informed consent and good compliance. The efficacy was evaluated according to the revised evaluation criteria of the Lugano conference, 2014 edition. Primary evaluation indexes of efficacy: objective response rate (ORR), i.e., (CR+PR cases)/total cases, including cases of complete response (CR) and partial response (PR). Secondary evaluation indexes of efficacy: progression-free survival (PFS), overall survival (OS), disease control rate (DCR) and duration of response (DOR)."}, "[5]": {"system": "relapsed/refractory mantle cell lymphoma", "experiment": "Clinical trial in relapsed/refractory mantle cell lymphoma (Example 3)", "experimental": "as §1, with “28” for “21”"}, "[6]": {"conditions": "20 mg QD dose group, 20 patients"}, "[7]": {"conditions": "22 lymphoma patients enrolled, 18 evaluable for efficacy"}, "[8]": {"conditions": "Tumor type Lymphoma, 43 patients"}, "[9]": {"conditions": "overall conclusion of the trial"}, "[10]": {"conditions": "patient R1009, DLBCL, 10 mg/qd, administration cycle C7D28"}, "[11]": {"conditions": "patient R1018, FL, 20 mg/bid, administration cycle C2D28"}, "[12]": {"conditions": "patient R2008, FL, 10 mg/bid, administration cycle C2D3"}},
  "data": [
    {"smiles": "COc1ncc(-c2ccc3ncc(OCCN(C)C)c(=O)n3c2)cc1NS(=O)(=O)c1ccc(F)cc1Cl", "note": "[compound of formula I]", "values": [
      {"measurement": "safety in treatment", "setting": "[1]", "value": "good safety"},
      {"measurement": "therapeutic effect on diffuse large B-cell lymphoma", "setting": "[1]", "value": "good therapeutic effect"},
      {"measurement": "safety in treatment", "setting": "[2]; 20 mg orally once daily", "value": "good safety"},
      {"measurement": "therapeutic effect on follicular lymphoma", "setting": "[2]; 20 mg orally once daily", "value": "good therapeutic effect"},
      {"measurement": "CR", "setting": "[2]; 20 patients with follicular lymphoma, 20 mg orally once daily (2 cases)", "value": 10.0, "unit": "%"},
      {"measurement": "ORR", "setting": "[2]; 20 patients with follicular lymphoma, 20 mg orally once daily (14 cases)", "value": 70, "unit": "%"},
      {"measurement": "safety in treatment", "setting": "[3]", "value": "good safety"},
      {"measurement": "treatment effect on small lymphocytic lymphoma or chronic lymphocytic leukemia", "setting": "[3]", "value": "good treatment effect"},
      {"measurement": "ORR", "setting": "[4]; 10 mg/qd and higher-dose group (11/15), 22 patients enrolled", "value": 73, "unit": "%"},
      {"measurement": "adverse event, a grade 3 hyperglycemia", "setting": "[4]; [6]", "value": 1, "unit": "case"},
      {"measurement": "overall safety and tolerance", "setting": "[4]; [6]", "value": "good overall safety and tolerance"},
      {"measurement": "ORR", "setting": "[4]; 20 mg/qd group (4/4), 22 patients enrolled", "value": 100, "unit": "%"},
      {"measurement": "patients achieved CR (best efficacy)", "setting": "[4]; [7]", "value": 2, "unit": "patients"},
      {"measurement": "patients achieved PR (best efficacy)", "setting": "[4]; [7]", "value": 9, "unit": "patients"},
      {"measurement": "ORR", "setting": "[4]; 35 lymphoma patients enrolled, 31 evaluated for efficacy (22/31)", "value": 71, "unit": "%"},
      {"measurement": "major grade 3 adverse event and dose-limiting toxicity (DLT) associated with study drugs", "setting": "[4]; 35 lymphoma patients enrolled, controlled and returned to baseline by withdrawal of drug or symptom-oriented treatment", "value": "hyperglycemia"},
      {"measurement": "ORR", "setting": "[4]; 50 lymphoma patients enrolled, 43 evaluated for efficacy (28/43)", "value": 65, "unit": "%"},
      {"measurement": "ORR, n (%)", "setting": "[4]; Tumor type CLL, 2 patients", "value": "2 (100%) n (%)"},
      {"measurement": "CR, n (%)", "setting": "[4]; Tumor type DLBCL, 8 patients", "value": "2 (25.0%) n (%)"},
      {"measurement": "ORR, n (%)", "setting": "[4]; Tumor type DLBCL, 8 patients", "value": "4 (50.0%) n (%)"},
      {"measurement": "CR, n (%)", "setting": "[4]; Tumor type FL, 20 patients", "value": "2 (10.0%) n (%)"},
      {"measurement": "ORR, n (%)", "setting": "[4]; Tumor type FL, 20 patients", "value": "15 (75%) n (%)"},
      {"measurement": "CR, n (%)", "setting": "[4]; [8]", "value": "4 (9.3%) n (%)"},
      {"measurement": "ORR, n (%)", "setting": "[4]; [8]", "value": "28 (65%) n (%)"},
      {"measurement": "ORR, n (%)", "setting": "[4]; Tumor type MCL, 5 patients", "value": "5 (100%) n (%)"},
      {"measurement": "CR, n (%)", "setting": "[4]; Tumor type NHL, 41 patients", "value": "4 (9.8%) n (%)"},
      {"measurement": "ORR, n (%)", "setting": "[4]; Tumor type NHL, 41 patients", "value": "28 (68%) n (%)"},
      {"measurement": "Best efficacy", "setting": "[4]; all the two follicular lymphoma patients in the 20 mg/qd group", "value": "achieved PR"},
      {"measurement": "Best efficacy", "setting": "[4]; all the two mantle cell lymphoma patients, relapsed or refractory after BTK inhibitor treatment", "value": "achieved PR"},
      {"measurement": "ORR", "setting": "[4]; follicular lymphoma (FL), 10 mg/qd and higher-dose group (6/8)", "value": 75, "unit": "%"},
      {"measurement": "safety", "setting": "[4]; [9]", "value": "good safety"},
      {"measurement": "therapeutic effect on lymphoma", "setting": "[4]; [9]", "value": "good therapeutic effect"},
      {"measurement": "Change in lesion", "setting": "[4]; patient R1006, FL, 10 mg/qd, administration cycle C5D28", "value": "−84.0", "unit": "%"},
      {"measurement": "Best efficacy", "setting": "[4]; [10]", "value": "Small SD"},
      {"measurement": "Change in lesion", "setting": "[4]; [10]", "value": "−37.5", "unit": "%"},
      {"measurement": "Best efficacy", "setting": "[4]; [11]", "value": "Small SD"},
      {"measurement": "Change in lesion", "setting": "[4]; [11]", "value": "−33.0", "unit": "%"},
      {"measurement": "Change in lesion", "setting": "[4]; patient R2006, DLBCL, 10 mg/qd, administration cycle C3D28", "value": "−100.0", "unit": "%"},
      {"measurement": "Best efficacy", "setting": "[4]; [12]", "value": "Small SD"},
      {"measurement": "Change in lesion", "setting": "[4]; [12]", "value": "−42.0", "unit": "%"},
      {"measurement": "Change in lesion", "setting": "[4]; patient R2009, MCL, 10 mg/bid, administration cycle C3D28", "value": "−71.0", "unit": "%"},
      {"measurement": "Change in lesion", "setting": "[4]; patient R2011, FL, 20 mg/bid, administration cycle C1D14", "value": "−94.0", "unit": "%"},
      {"measurement": "safety in treatment", "setting": "[5]; 20 mg orally once daily", "value": "good safety"},
      {"measurement": "therapeutic effect on mantle cell lymphoma", "setting": "[5]; 20 mg orally once daily", "value": "good therapeutic effect"},
      {"measurement": "CR", "setting": "[5]; 21 patients with mantle cell lymphoma, 20 mg orally once daily (2 cases)", "value": 9.5, "unit": "%"},
      {"measurement": "ORR", "setting": "[5]; 21 patients with mantle cell lymphoma, 20 mg orally once daily (16 cases)", "value": 76, "unit": "%"},
      {"measurement": "patients reached ORR", "setting": "[5]; of the 7 patients previously treated with a BTK inhibitor", "value": "Five"}
    ]}
  ]
}
